# Results: patent US20100267561A1, “HERBICIDAL PYRIDAZINONE DERIVATIVES” (priority 2007, published 2010)
# Key:
# Type in all cases: in vivo
# [1] = system: large crabgrass (Digitaria sanguinalis); assay: Test A pre-/postemergence plant response
# Procedure, shortened: (§1)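 Ratings run 0–100 (100 = complete control), assigned visually against untreated controls roughly 10 days after treatment in a greenhouse. Compounds, formulated in non-phytotoxic solvent containing surfactant, were applied as a soil-directed preemergence spray and concurrently postemergence to one- to two-leaf plants 2–10 cm tall.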
# corn (Zea mays) = assay: Test A pre-/postemergence plant response
# Procedure, shortened: as §1
# [2] = system: pigweed (Amaranthus retroflexus); assay: Test A pre-/postemergence plant response
# Procedure, shortened: as §1
# [3] = system: barnyardgrass (Echinochloa crus-galli); assay: Test A pre-/postemergence plant response
# Procedure, shortened: as §1
# [4] = system: giant foxtail (Setaria faberi); assay: Test A pre-/postemergence plant response
# Procedure, shortened: as §1
# [5] = system: wheat (Triticum aestivum); assay: Test A pre-/postemergence plant response
# Procedure, shortened: as §1
# [6] = system: blackgrass (Alopecurus myosuroides); assay: Test B pre-/postemergence plant response
# Excerpt: (§2) Seeds of plant species selected from blackgrass (Alopecurus myosuroides), downy bromegrass (Bromus tectorum), green foxtail (Setaria viridis), Italian ryegrass (Lolium multiflorum), wheat (Triticum aestivum), wild oat (Avena fatua), catchweed bedstraw (Galium aparine), bermudagrass (Cynodon dactylon), surinam grass (Brachiaria decumbens), cocklebur (Xanthium strumarium), corn (Zea mays), large crabgrass (Digitaria sanguinalis), woolly cupgrass (Eriochloa villosa), giant foxtail (Setaria faberii), goosegrass (Eleusine indica), johnsongrass (Sorghum halepense), kochia (Kochia scoparia), lambsquarters (Chenopodium album), morningglory (Ipomoea coccinea), eastern black (E.B.) nightshade (Solanum ptycanthum), yellow nutsedge (Cyperus esculentus), pigweed (Amaranthus retroflexus), common ragweed (Ambrosia elation), Russian thistle (Salsola iberica), soybean (Glycine max), common (oilseed) sunflower (Helianthus annuus), and velvetleaf (Abutilon theophrasti) were planted and treated preemergence with test chemicals formulated in a non-phytotoxic solvent mixture which included a surfactant.
# (§3) At the same time, plants selected from these crop and weed species and also winter barley (Hordeum vulgare), canarygrass (Phalaris minor), chickweed (Stellaria media) and windgrass (Apera spica-venti) were treated with postemergence applications of some of the test chemicals formulated in the same manner. Plants ranged in height from 2 to 18 cm (1- to 4-leaf stage) for postemergence treatments.
# (§4) Plant species in the flooded paddy test consisted of rice (Oryza sativa), umbrella sedge (Cyperus difformis), ducksalad (Heteranthera limosa) and barnyardgrass (Echinochloa crus-galli) grown to the 2-leaf stage for testing. At time of treatment, test pots were flooded to 3 cm above the soil surface, treated by application of test compounds directly to the paddy water, and then maintained at that water depth for the duration of the test. Treated plants and controls were maintained in a greenhouse for 13 to 15 days, after which time all species were compared to controls and visually evaluated. Plant response ratings, summarized in Table B, are based on a scale of 0 to 100 where 0 is no effect and 100 is complete control. A dash (-) response means no test result.
# [7] = system: lambsquarters (Chenopodium album); assay: Test B pre-/postemergence plant response
# Excerpt: as §2, §3, §4
# [8] = system: morningglory (Ipomoea coccinea); assay: Test B pre-/postemergence plant response
# Excerpt: as §2, §3, §4
# [9] = Postemergence, 31 g ai/ha, 0 to 100 scale, 0 no effect, 100 complete control
# [10] = Postemergence, 125 g ai/ha, 0 to 100 scale, 0 no effect, 100 complete control
# [11] = Preemergence, 31 g ai/ha, 0 to 100 scale, 0 is no effect, 100 is complete control
# [12] = Preemergence, 125 g ai/ha, 0 to 100 scale (0 no effect, 100 complete control)
# [13] = 8 g ai/ha, postemergence, 0-100 scale
# [14] = Postemergence, 31 g ai/ha, scale 0 to 100
# [15] = Postemergence, 62 g ai/ha, scale 0 to 100, 0 no effect, 100 complete control
# [16] = Preemergence, 31 g ai/ha, scale 0 to 100 (0 no effect, 100 complete control)
# [17] = Preemergence, 62 g ai/ha, 0 to 100 scale, 0 no effect, 100 complete control
# [18] = Preemergence, 8 g ai/ha, scale 0 to 100
# [19] = 16 g ai/ha, postemergence, 0-100 scale
# [20] = Preemergence, 16 g ai/ha, scale 0 to 100
# [21] = Preemergence, 8 g ai/ha, scale 0 to 100 (0 no effect, 100 complete control)
smiles,measurement,setting,value
CCc1cc(-c2ccc(Br)cc2)nn1-c1c(O)c(C)nn(C)c1=O [Compound 74],"Plant response rating, Crabgrass, Large",[1]; [9],60
same,"Plant response rating, Crabgrass, Large",[1]; [10],100
same,"Plant response rating, Crabgrass, Large",[1]; [11],50
same,"Plant response rating, Crabgrass, Large",[1]; [12],90
same,"Plant response rating, Corn",corn (Zea mays); [9],60
same,"Plant response rating, Corn",corn (Zea mays); [10],100
same,"Plant response rating, Corn",corn (Zea mays); [12],60
same,"Plant response rating, Pigweed",[2]; [9],0
same,"Plant response rating, Pigweed",[2]; [10],0
same,"Plant response rating, Pigweed",[2]; [11],0
same,"Plant response rating, Pigweed",[2]; [12],0
same,"Plant response rating, Barnyardgrass",[3]; [9],100
same,"Plant response rating, Barnyardgrass",[3]; [10],100
same,"Plant response rating, Barnyardgrass",[3]; [11],100
same,"Plant response rating, Barnyardgrass",[3]; [12],100
same,"Plant response rating, Foxtail, Giant",[4]; [9],70
same,"Plant response rating, Foxtail, Giant",[4]; [10],100
same,"Plant response rating, Foxtail, Giant",[4]; [11],90
same,"Plant response rating, Foxtail, Giant",[4]; [12],100
same,"Plant response rating, Wheat",[5]; [9],70
same,"Plant response rating, Wheat",[5]; [10],80
same,"Plant response rating, Wheat",[5]; [11],20
same,"Plant response rating, Wheat",[5]; [12],60
same,Blackgrass plant response rating,[6]; [13],90
same,"Plant response rating, Blackgrass","[6]; Postemergence, 16 g ai/ha, scale 0 to 100",95
same,"Plant response rating, Blackgrass",[6]; [14],98
same,"Plant response rating, Blackgrass",[6]; [15],100
same,"Plant response rating, Blackgrass","[6]; Preemergence, 16 g ai/ha, scale 0 to 100 (0 no effect, 100 complete control)",100
same,"Plant response rating, Blackgrass",[6]; [16],100
same,"Plant response rating, Blackgrass",[6]; [17],100
same,Blackgrass plant response rating,[6]; [18],85
same,Lambsquarters plant response rating,[7]; [13],0
same,Lambsquarters plant response rating,[7]; [19],0
same,"Plant response rating, Lambsquarters",[7]; [14],0
same,"Plant response rating, Lambsquarters",[7]; [15],0
same,"Plant response rating, Lambsquarters",[7]; [16],0
same,"Plant response rating, Lambsquarters",[7]; [17],20
same,Lambsquarters plant response rating,[7]; [18],0
same,Lambsquarters plant response rating,[7]; [20],0
same,Morningglory plant response rating,[8]; [13],0
same,Morningglory plant response rating,[8]; [19],0
same,"Plant response rating, Morningglory",[8]; [14],0
same,"Plant response rating, Morningglory",[8]; [15],0
same,"Plant response rating, Morningglory",[8]; [16],0
same,"Plant response rating, Morningglory",[8]; [17],0
same,Morningglory plant response rating,[8]; [18],0
same,Morningglory plant response rating,[8]; [20],0
COc1nn(C)c(=O)c(-n2nc(-c3ccc(Br)cc3)cc2C)c1O [Compound 82],"Plant response rating, Crabgrass, Large",[1]; [9],100
same,"Plant response rating, Crabgrass, Large",[1]; [10],100
same,"Plant response rating, Crabgrass, Large",[1]; [11],50
same,"Plant response rating, Crabgrass, Large",[1]; [12],100
same,"Plant response rating, Corn",corn (Zea mays); [9],80
same,"Plant response rating, Corn",corn (Zea mays); [10],100
same,"Plant response rating, Corn",corn (Zea mays); [11],40
same,"Plant response rating, Corn",corn (Zea mays); [12],50
same,"Plant response rating, Pigweed",[2]; [9],0
same,"Plant response rating, Pigweed",[2]; [10],0
same,"Plant response rating, Pigweed",[2]; [11],0
same,"Plant response rating, Pigweed",[2]; [12],0
same,"Plant response rating, Barnyardgrass",[3]; [9],100
same,"Plant response rating, Barnyardgrass",[3]; [10],100
same,"Plant response rating, Barnyardgrass",[3]; [11],50
same,"Plant response rating, Barnyardgrass",[3]; [12],100
same,"Plant response rating, Foxtail, Giant",[4]; [9],100
same,"Plant response rating, Foxtail, Giant",[4]; [10],100
same,"Plant response rating, Foxtail, Giant",[4]; [11],90
same,"Plant response rating, Foxtail, Giant",[4]; [12],100
same,"Plant response rating, Wheat",[5]; [9],90
same,"Plant response rating, Wheat",[5]; [10],100
same,"Plant response rating, Wheat",[5]; [11],50
same,"Plant response rating, Wheat",[5]; [12],90
same,Blackgrass plant response rating,[6]; [13],98
same,Blackgrass plant response rating,[6]; [19],98
same,"Plant response rating, Blackgrass",[6]; [14],100
same,"Plant response rating, Blackgrass",[6]; [15],100
same,Blackgrass plant response rating,[6]; [21],80
same,"Plant response rating, Blackgrass",[6]; [16],100
same,"Plant response rating, Blackgrass",[6]; [17],100
same,Blackgrass plant response rating,[6]; [20],98
same,Lambsquarters plant response rating,[7]; [13],0
same,Lambsquarters plant response rating,[7]; [19],0
same,"Plant response rating, Lambsquarters",[7]; [14],0
same,"Plant response rating, Lambsquarters",[7]; [15],0
same,Lambsquarters plant response rating,[7]; [21],0
same,"Plant response rating, Lambsquarters",[7]; [16],100
same,"Plant response rating, Lambsquarters",[7]; [17],100
same,Lambsquarters plant response rating,[7]; [20],0
same,Morningglory plant response rating,[8]; [13],0
same,Morningglory plant response rating,[8]; [19],0
same,"Plant response rating, Morningglory",[8]; [14],0
same,"Plant response rating, Morningglory",[8]; [15],55
same,Morningglory plant response rating,[8]; [21],0
same,"Plant response rating, Morningglory",[8]; [16],0
same,"Plant response rating, Morningglory",[8]; [17],25
same,Morningglory plant response rating,[8]; [20],0
CCc1c(C)c(-c2ccc(Br)cc2)nn1-c1c(O)cnn(C)c1=O [Compound 83],"Plant response rating, Crabgrass, Large",[1]; [9],60
same,"Plant response rating, Crabgrass, Large",[1]; [10],100
same,"Plant response rating, Crabgrass, Large",[1]; [11],0
same,"Plant response rating, Crabgrass, Large",[1]; [12],70
same,"Plant response rating, Corn",corn (Zea mays); [9],0
same,"Plant response rating, Corn",corn (Zea mays); [10],100
same,"Plant response rating, Corn",corn (Zea mays); [11],0
same,"Plant response rating, Corn",corn (Zea mays); [12],40
same,"Plant response rating, Pigweed",[2]; [9],0
same,"Plant response rating, Pigweed",[2]; [10],0
same,"Plant response rating, Pigweed",[2]; [11],0
same,"Plant response rating, Pigweed",[2]; [12],30
same,"Plant response rating, Barnyardgrass",[3]; [9],100
same,"Plant response rating, Barnyardgrass",[3]; [10],100
same,"Plant response rating, Barnyardgrass",[3]; [11],20
same,"Plant response rating, Barnyardgrass",[3]; [12],100
same,"Plant response rating, Foxtail, Giant",[4]; [9],90
same,"Plant response rating, Foxtail, Giant",[4]; [10],100
same,"Plant response rating, Foxtail, Giant",[4]; [11],0
same,"Plant response rating, Foxtail, Giant",[4]; [12],100
same,"Plant response rating, Wheat",[5]; [9],0
same,"Plant response rating, Wheat",[5]; [10],60
same,"Plant response rating, Wheat",[5]; [11],0
same,"Plant response rating, Wheat",[5]; [12],30
same,Blackgrass plant response rating,[6]; [13],70
same,Blackgrass plant response rating,[6]; [19],95
same,"Plant response rating, Blackgrass",[6]; [14],95
same,"Plant response rating, Blackgrass",[6]; [15],100
same,Blackgrass plant response rating,[6]; [21],0
same,"Plant response rating, Blackgrass",[6]; [16],80
same,"Plant response rating, Blackgrass",[6]; [17],98
same,Blackgrass plant response rating,[6]; [20],30
same,Lambsquarters plant response rating,[7]; [13],0
same,Lambsquarters plant response rating,[7]; [19],0
same,"Plant response rating, Lambsquarters",[7]; [14],0
same,"Plant response rating, Lambsquarters",[7]; [15],0
same,Lambsquarters plant response rating,[7]; [21],100
same,"Plant response rating, Lambsquarters",[7]; [16],100
same,"Plant response rating, Lambsquarters",[7]; [17],100
same,Lambsquarters plant response rating,[7]; [20],100
same,Morningglory plant response rating,[8]; [13],0
same,Morningglory plant response rating,[8]; [19],0
same,"Plant response rating, Morningglory",[8]; [14],0
same,"Plant response rating, Morningglory",[8]; [15],0
same,Morningglory plant response rating,[8]; [21],0
same,"Plant response rating, Morningglory",[8]; [16],0
same,"Plant response rating, Morningglory",[8]; [17],0
same,Morningglory plant response rating,[8]; [20],0
